Experimental data published in patent US20250352520A1, “USE OF DEXPRAMIPEXOLE FOR THE TREATMENT OF EOSINOPHILIC COPD” (Areteia Therapeutics, Inc., priority 2024, published 2025).

Description: Participants performed post-BD spirometry at specific visits as noted in the SOA.
After completing the pre-BD spirometry, participants inhaled four puffs of albuterol/salbutamol (site sourced) metered dose inhaler (approximately 100 μg albuterol/salbutamol base per actuation), with each actuation 1 minute apart. Post-BD spirometry was assessed within 15 to 30 minutes after inhalation of albuterol/salbutamol.

[1] = AECR≥0.5 patients, after 16 weeks
[2] = Week 16, <50% AEC reduction at Week 16
[3] = Week 16, <50% AEC reduction at Week 16 (N = 4), 150 mg BID

## CCCN[C@@H]1CCc2nc(N)sc2C1 [Dexpramipexole, (6R)-2-amino-4,5,6,7-tetrahydro-6-(propylamino)benzothiazole]
[1]
  Post-BD FEV1, absolute increase: 220 mL
  Post-BD FEV1, improvement compared to baseline: 16.6%
AECR≥0.5 patients, week 16
  Post-BD FEF25-75, absolute increase: 130 mL
  Post-BD FEF25-75, average increase compared to baseline: 26.7%
  Post-BD FVC, absolute increase: 226.7 mL
  Post-BD FVC, average increase compared to baseline: 9.2%
  Post-BD Peak Flow, average improvement compared to baseline: 40.2%
[2]
  Post-BD FEV1 % change from baseline, Max: 19%
  Post-BD FEV1 % change from baseline, Mean ± SD: −0.1± 21.10%
  Post-BD FEV1 % change from baseline, Median: 4.8%
  Post-BD FEV1 % change from baseline, Min: −29%
  Post-BD FEV1 % change from baseline, Q1: −15%
  Post-BD FEV1 % change from baseline, Q3: 15%
  Post-BD FEV1 Observed, Max: 1950 mL
  Post-BD FEV1 Observed, Mean ± SD: 1522.5 ± 546.34 mL
  Post-BD FEV1 Observed, Median: 1705.0 mL
  Post-BD FEV1 Observed, Min: 730 mL
  Post-BD FEV1 Observed, Q1: 1170 mL
  Post-BD FEV1 Observed, Q3: 1875 mL
  Post-BD FEV1 change from baseline, Max: 290 mL
  Post-BD FEV1 change from baseline, Mean ± SD: 40.0 ± 260.90 mL
  Post-BD FEV1 change from baseline, Median: 85.0 mL
  Post-BD FEV1 change from baseline, Min: -300 mL
  Post-BD FEV1 change from baseline, Q1: -160 mL
  Post-BD FEV1 change from baseline, Q3: 240 mL
[3]
  Post bronchodilator Forced Expiratory Flow 25-75% (FEF25-75), % CFB (Percent change from baseline), Max: 54%
  Post bronchodilator Forced Expiratory Flow 25-75% (FEF25-75), % CFB (Percent change from baseline), Mean ± SD: 9.7 ± 40.69%
  Post bronchodilator Forced Expiratory Flow 25-75% (FEF25-75), % CFB (Percent change from baseline), Median: 7.3%
  Post bronchodilator Forced Expiratory Flow 25-75% (FEF25-75), % CFB (Percent change from baseline), Min: −29%
  Post bronchodilator Forced Expiratory Flow 25-75% (FEF25-75), % CFB (Percent change from baseline), Q1: −25%
  Post bronchodilator Forced Expiratory Flow 25-75% (FEF25-75), % CFB (Percent change from baseline), Q3: 44%
  Post bronchodilator Forced Expiratory Flow 25-75% (FEF25-75), CFB (Change from baseline), Max: 290 mL/s
  Post bronchodilator Forced Expiratory Flow 25-75% (FEF25-75), CFB (Change from baseline), Mean ± SD: 90.0 ± 225.24 mL/s
  Post bronchodilator Forced Expiratory Flow 25-75% (FEF25-75), CFB (Change from baseline), Median: 90.0 mL/s
  Post bronchodilator Forced Expiratory Flow 25-75% (FEF25-75), CFB (Change from baseline), Min: -110 mL/s
  Post bronchodilator Forced Expiratory Flow 25-75% (FEF25-75), CFB (Change from baseline), Q1: -105 mL/s
  Post bronchodilator Forced Expiratory Flow 25-75% (FEF25-75), CFB (Change from baseline), Q3: 285 mL/s
  Post bronchodilator Forced Expiratory Flow 25-75% (FEF25-75), Observed, Max: 1090 mL/s
  Post bronchodilator Forced Expiratory Flow 25-75% (FEF25-75), Observed, Mean ± SD: 650.0 ± 382.19 mL/s
  Post bronchodilator Forced Expiratory Flow 25-75% (FEF25-75), Observed, Median: 635.0 mL/s
  Post bronchodilator Forced Expiratory Flow 25-75% (FEF25-75), Observed, Min: 240 mL/s
  Post bronchodilator Forced Expiratory Flow 25-75% (FEF25-75), Observed, Q1: 340 mL/s
  Post bronchodilator Forced Expiratory Flow 25-75% (FEF25-75), Observed, Q3: 960 mL/s
  Post bronchodilator Forced Vital Capacity (FVC), % CFB (Percent change from baseline), Max: 18%
  Post bronchodilator Forced Vital Capacity (FVC), % CFB (Percent change from baseline), Mean ± SD: 3.0 ± 14.06%
  Post bronchodilator Forced Vital Capacity (FVC), % CFB (Percent change from baseline), Median: 4.6%
  Post bronchodilator Forced Vital Capacity (FVC), % CFB (Percent change from baseline), Min: −16%
  Post bronchodilator Forced Vital Capacity (FVC), % CFB (Percent change from baseline), Q1: −6%
  Post bronchodilator Forced Vital Capacity (FVC), % CFB (Percent change from baseline), Q3: 12%
  Post bronchodilator Forced Vital Capacity (FVC), CFB (Change from baseline), Max: 450 mL
  Post bronchodilator Forced Vital Capacity (FVC), CFB (Change from baseline), Mean ± SD: 70.0 ± 388.16 mL
  Post bronchodilator Forced Vital Capacity (FVC), CFB (Change from baseline), Median: 150.0 mL
  Post bronchodilator Forced Vital Capacity (FVC), CFB (Change from baseline), Min: -470 mL
  Post bronchodilator Forced Vital Capacity (FVC), CFB (Change from baseline), Q1: -180 mL
  Post bronchodilator Forced Vital Capacity (FVC), CFB (Change from baseline), Q3: 320 mL
  Post bronchodilator Forced Vital Capacity (FVC), Observed, Max: 3460 mL
  Post bronchodilator Forced Vital Capacity (FVC), Observed, Mean ± SD: 3082.5 ± 447.84 mL
  Post bronchodilator Forced Vital Capacity (FVC), Observed, Median: 3165.0 mL
  Post bronchodilator Forced Vital Capacity (FVC), Observed, Min: 2540 mL
  Post bronchodilator Forced Vital Capacity (FVC), Observed, Q1: 2715 mL
  Post bronchodilator Forced Vital Capacity (FVC), Observed, Q3: 3450 mL
  Post bronchodilator Peak Flow, % CFB (Percent change from baseline), Max: 42%
  Post bronchodilator Peak Flow, % CFB (Percent change from baseline), Mean ± SD: 16.9 ± 28.64%
  Post bronchodilator Peak Flow, % CFB (Percent change from baseline), Median: 18.1%
  Post bronchodilator Peak Flow, % CFB (Percent change from baseline), Min: −10%
  Post bronchodilator Peak Flow, % CFB (Percent change from baseline), Q1: −8%
  Post bronchodilator Peak Flow, % CFB (Percent change from baseline), Q3: 42%
  Post bronchodilator Peak Flow, CFB (Change from baseline), Max: 150 L/min
  Post bronchodilator Peak Flow, CFB (Change from baseline), Mean ± SD: 51.5 ± 88.04 L/min
  Post bronchodilator Peak Flow, CFB (Change from baseline), Median: 46.0 L/min
  Post bronchodilator Peak Flow, CFB (Change from baseline), Min: -36 L/min
  Post bronchodilator Peak Flow, CFB (Change from baseline), Q1: -22 L/min
  Post bronchodilator Peak Flow, CFB (Change from baseline), Q3: 125 L/min
  Post bronchodilator Peak Flow, Observed, Max: 509 L/min
  Post bronchodilator Peak Flow, Observed, Mean ± SD: 326.0 ± 148.82 L/min
